# Laboratory results from publication PMC10648852, “Molecular drivers of resistance to sulbactam-durlobactam in contemporary clinical isolates of Acinetobacter baumannii” (Antimicrobial Agents and Chemotherapy, 2023).
# Columns and labels:
# Experiment in all cases: microbe, parasite or virus in culture
# [1] = tested on: A. nosocomialis clinical isolate; type: cell-based; settings: isolate ARC7023 (IHMA 2118812), France, BSI, 2019
# Description: (§1) The following report describes the genomic analysis of these isolates for likely resistance mechanisms. Biochemical analysis of purified PBP3 and phenotypic analyses of both clinical and isogenic strains were also conducted to determine the relative impact of key resistance determinants to SUL-DUR antibacterial activity.
# (§2) Antimicrobial susceptibility testing was performed using broth microdilution following standardized methods established by the Clinical Laboratory Standards Institute (CLSI) ([35], [36]). […] MIC values were interpreted using CLSI breakpoints for all antimicrobial agents except those for which CLSI breakpoints are not available ([35]). SUL-DUR was tested as twofold dilutions of sulbactam in combination with a fixed concentration of 4 µg/mL durlobactam ([35]).
# [2] = tested on: A. pittii clinical isolates; type: cell-based
# Description: as §1, §2
# [3] = tested on: A. baumannii clinical isolates; type: cell-based
# Description: as §1, §2
# [4] = tested on: ABC clinical isolates with SUL-DUR MIC > 4 µg/mL; type: cell-based, Acinetobacter baumannii-calcoaceticus complex
# Description: as §1, §2
compound,measurement,setting,value
CN(C)c1ccc(O)c2c1C[C@H]1C[C@H]3[C@H](N(C)C)C(O)=C(C(N)=O)C(=O)[C@@]3(O)C(O)=C1C2=O [MIN],MIC,[1],0.5 µg/mL
same,MIC,"[2]; isolate ARC6949 (IHMA 1898982), Romania, RTI, 2018",0.5 µg/mL
same,MIC,"[2]; isolate ARC6951 (IHMA 1776233), Philippines, RTI, 2018",0.25 µg/mL
same,MIC,"[2]; isolate ARC6952 (IHMA 1899008), Romania, RTI, 2018",1 µg/mL
same,MIC,"[2]; isolate ARC7087 (IHMA 2212062), Colombia, BSI, 2020",≤0.12 µg/mL
same,MIC,"[3]; isolate ARC6644 (IHMA 1420327), Mexico, UTI, 2016",8 µg/mL
same,MIC,"[3]; isolate ARC6645 (IHMA 1435703), France, UTI, 2016",0.5 µg/mL
same,MIC,"[3]; isolate ARC6646 (IHMA 1484127), United States, RTI, 2016",8 µg/mL
same,MIC,"[3]; isolate ARC6647 (IHMA 1386786), Argentina, RTI, 2016",1 µg/mL
same,MIC,"[3]; isolate ARC6648 (IHMA 1407634), Spain, RTI, 2016",1 µg/mL
same,MIC,"[3]; isolate ARC6650 (IHMA 1457337), Argentina, RTI, 2016",4 µg/mL
same,MIC,"[3]; isolate ARC6652 (IHMA 1465642), Belgium, RTI, 2016",≤0.12 µg/mL
same,MIC,"[3]; isolate ARC6653 (IHMA 1308777), Vietnam, RTI, 2016",16 µg/mL
same,MIC,"[3]; isolate ARC6799 (IHMA 1562935), Spain, UTI, 2017",>16 µg/mL
same,MIC,"[3]; isolate ARC6800 (IHMA 1557526), Turkey, RTI, 2017",2 µg/mL
same,MIC,"[3]; isolate ARC6801 (IHMA 1662094), Thailand, RTI, 2017",0.5 µg/mL
same,MIC,"[3]; isolate ARC6802 (IHMA 1557073), Spain, UTI, 2017",>16 µg/mL
same,MIC,"[3]; isolate ARC6803 (IHMA 1589408), Belgium, UTI, 2017",≤0.12 µg/mL
same,MIC,"[3]; isolate ARC6805 (IHMA 1558650), United States, RTI, 2017",8 µg/mL
same,MIC,"[3]; isolate ARC6808 (IHMA 1557168), Spain, RTI, 2017",16 µg/mL
same,MIC,"[3]; isolate ARC6809 (IHMA 1699528), Guatemala, RTI, 2017",≤0.12 µg/mL
same,MIC,"[3]; isolate ARC6810 (IHMA 1699548), Guatemala, RTI, 2017",1 µg/mL
same,MIC,"[3]; isolate ARC6812 (IHMA 1699530), Guatemala, RTI, 2017",0.25 µg/mL
same,MIC,"[3]; isolate ARC6813 (IHMA 1699543), Guatemala, UTI, 2017",0.25 µg/mL
same,MIC,"[3]; isolate ARC6814 (IHMA 1699512), Guatemala, RTI, 2017",4 µg/mL
same,MIC,"[3]; isolate ARC6815 (IHMA 1699513), Guatemala, RTI, 2017",0.25 µg/mL
same,MIC,"[3]; isolate ARC6816 (IHMA 1699521), Guatemala, RTI, 2017",8 µg/mL
same,MIC,"[3]; isolate ARC6817 (IHMA 1699523), Guatemala, RTI, 2017",≤0.12 µg/mL
same,MIC,"[3]; isolate ARC6818 (IHMA 1683261), Thailand, RTI, 2017",≤0.12 µg/mL
same,MIC,"[3]; isolate ARC6819 (IHMA 1683267), Thailand, RTI, 2017",8 µg/mL
same,MIC,"[3]; isolate ARC6820 (IHMA 1647876), Argentina, RTI, 2017",4 µg/mL
same,MIC,"[3]; isolate ARC6821 (IHMA 1699517), Guatemala, RTI, 2017",≤0.12 µg/mL
same,MIC,"[3]; isolate ARC6822 (IHMA 1637626), Guatemala, RTI, 2017",0.25 µg/mL
same,MIC,"[3]; isolate ARC6823 (IHMA 1620872), Greece, SSSI, 2017",8 µg/mL
same,MIC,"[3]; isolate ARC6824 (IHMA 1625487), Argentina, BSI, 2017",2 µg/mL
same,MIC,"[3]; isolate ARC6937 (IHMA 1562926), Spain, UTI, 2017",>16 µg/mL
same,MIC,"[3]; isolate ARC6950 (IHMA 1820064), Israel, RTI, 2018",2 µg/mL
same,MIC,"[3]; isolate ARC6953 (IHMA 1909827), Turkey, IAI, 2018",0.5 µg/mL
same,MIC,"[3]; isolate ARC6954 (IHMA 1838192), Guatemala, SSSI, 2018",0.5 µg/mL
same,MIC,"[3]; isolate ARC6955 (IHMA 1825425), United States, RTI, 2018",2 µg/mL
same,MIC,"[3]; isolate ARC7008 (IHMA 2009813), Thailand, BSI, 2019",4 µg/mL
same,MIC,"[3]; isolate ARC7009 (IHMA 2043611), United States, UTI, 2019",2 µg/mL
same,MIC,"[3]; isolate ARC7010 (IHMA 2043398), United States, RTI, 2019",1 µg/mL
same,MIC,"[3]; isolate ARC7011 (IHMA 2104553), Germany, RTI, 2019",2 µg/mL
same,MIC,"[3]; isolate ARC7012 (IHMA 2010001), Thailand, RTI, 2019",2 µg/mL
same,MIC,"[3]; isolate ARC7013 (IHMA 1962831), Argentina, RTI, 2019",1 µg/mL
same,MIC,"[3]; isolate ARC7014 (IHMA 2045328), Guatemala, IAI, 2019",16 µg/mL
same,MIC,"[3]; isolate ARC7015 (IHMA 2045327), Guatemala, UTI, 2019",0.25 µg/mL
same,MIC,"[3]; isolate ARC7016 (IHMA 2148441), Brazil, BSI, 2019",0.5 µg/mL
same,MIC,"[3]; isolate ARC7017 (IHMA 2148446), Brazil, BSI, 2019",0.25 µg/mL
same,MIC,"[3]; isolate ARC7018 (IHMA 2045454), Guatemala, IAI, 2019",0.25 µg/mL
same,MIC,"[3]; isolate ARC7019 (IHMA 2114463), Thailand, RTI, 2019",1 µg/mL
same,MIC,"[3]; isolate ARC7020 (IHMA 2045326), Guatemala, RTI, 2019",0.5 µg/mL
same,MIC,"[3]; isolate ARC7021 (IHMA 1966347), Guatemala, RTI, 2019",0.25 µg/mL
same,MIC,"[3]; isolate ARC7022 (IHMA 2045319), Guatemala, IAI, 2019",1 µg/mL
same,MIC,"[3]; isolate ARC7024 (IHMA 2059448), Turkey, RTI, 2019",2 µg/mL
same,MIC,"[3]; isolate ARC7025 (IHMA 2002121), Spain, RTI, 2019",8 µg/mL
same,MIC,"[3]; isolate ARC7026 (IHMA 2104494), Guatemala, BSI, 2019",2 µg/mL
same,MIC,"[3]; isolate ARC7082 (IHMA 2160640), Belgium, BSI, 2020",16 µg/mL
same,MIC,"[3]; isolate ARC7083 (IHMA 2163687), United States, RTI, 2020",16 µg/mL
same,MIC,"[3]; isolate ARC7084 (IHMA 2189596), Germany, RTI, 2020",1 µg/mL
same,MIC,"[3]; isolate ARC7085 (IHMA 2205747), Guatemala, IAI, 2020",1 µg/mL
same,MIC,"[3]; isolate ARC7086 (IHMA 2207563), Israel, RTI, 2020",2 µg/mL
same,MIC,"[3]; isolate ARC7088 (IHMA 2215554), Turkey, BSI, 2020",16 µg/mL
same,MIC,"[3]; isolate ARC7089 (IHMA 2240345), Argentina, BSI, 2020",2 µg/mL
same,MIC,"[3]; isolate ARC7090 (IHMA 2244410), Poland, RTI, 2020",4 µg/mL
same,MIC,"[3]; isolate ARC7091 (IHMA 2244564), Australia, RTI, 2020",≤0.12 µg/mL
same,MIC,"[3]; isolate ARC7092 (IHMA 2258772), United States, BSI, 2020",4 µg/mL
same,MIC,"[3]; isolate ARC7093 (IHMA 2258783), United States, RTI, 2020",8 µg/mL
same,MIC,"[3]; isolate ARC7094 (IHMA 2296423), Turkey, RTI, 2020",2 µg/mL
same,MIC,"[3]; isolate ARC7095 (IHMA 2320843), Turkey, BSI, 2020",8 µg/mL
same,MIC,"[3]; isolate ARC7156 (IHMA 2455450), Greece, RTI, 2021",>16 µg/mL
same,MIC,"[3]; isolate ARC7158 (IHMA 2523738), Italy, BSI, 2021",2 µg/mL
same,MIC,"[3]; isolate ARC7159 (IHMA 2456229), Malaysia, RTI, 2021",4 µg/mL
same,MIC,"[3]; isolate ARC7160 (IHMA 2458626), Thailand, RTI, 2021",1 µg/mL
same,MIC,"[3]; isolate ARC7161 (IHMA 2429252), Ukraine, RTI, 2021",16 µg/mL
same,MIC,"[3]; isolate ARC7162 (IHMA 2411847), United States, BSI, 2021",2 µg/mL
same,MIC,"[3]; isolate ARC7163 (IHMA 2477704), United States, BSI, 2021",2 µg/mL
same,MIC50,[4],2 µg/mL
same,MIC90,[4],16 µg/mL
same,MIC Max,[4],>16 µg/mL
same,MIC Min,[4],≤0.12 µg/mL
same,%NS (% non-susceptibility),"[4]; 64 non-clonal ABC isolates, 2023 CLSI breakpoints plus FDA breakpoint of 4 µg/mL for SUL-DUR",27%
